From US20140099354A1, “BIOPASSIVATING MEMBRANE STABILIZATION BY MEANS OF NITROCARBOXYLIC ACID-CONTAINING PHOSPHOLIPIDS IN PREPARATIONS AND COATINGS” (priority 2011, published 2014)
Like-named read-outs stand apart in the source and are kept apart here.

How the values were obtained:
[1] = tested on: HeLa, HUVEC and L929 fibroblast; experiment: cells; type: cell-based; conditions: for EC50: after 48 hours; for viability as quantified by the MTT assay: tested concentrations 10 μmol to 1 mmol, EC50 could not be calculated
Experimental: (§1) Physiologically occurring phospholipids can be taken up by virtually all cell lines in large quantities. It is known that phospholipids that contain non-physiologically occurring fatty acid residues can cause cell lyses or death. Three cell lines (HeLa, HUVEC and L929 fibroblast) were cultured in a suitable culture medium of 5% FCS at 37° C. and 5% CO2 concentrations to a subconfluent concentration of 1.5×10^5 cells.
SOPC, DOPC, POPC, ONOPC, PNLPC, and the free fatty acids of OA, LA, NOOA, and NOLA were dissolved in 0.5% DMSO. […] Cell cultures were incubated for 24 h and 48 h. Thereafter, the culture medium was removed and the cells washed twice. Following this, cells suspensions were given in four vials to perform the following analysis:
For the determination of viability, phenol red was added to the suspended cells. After 4 h, the medium was renewed and 10 μl of the MTT solution was added. The cells were cultured for 4 hours, and then a 10% SDS solution was pipetted. After 24 h, absorption of formazan crystals was measured at 500 nm using a power wave X (bio-tek instruments, Inc., USA). For the quantitative comparison of toxicity, the EC50 was determined.

[2] = tested on: HeLa, HUVEC and L929 fibroblast; experiment: Volumetric measurement of cells (Coulter counter); type: cell-based; conditions: time-dependent increase after incubation
Experimental: as §1
(§2) SOPC, DOPC, POPC, ONOPC, PNLPC, and the free fatty acids of OA, LA, NOOA, and NOLA were dissolved in 0.5% DMSO. Experiments were performed also with nitro-carboxylic acid-containing phospholipids according to examples N15-N20, G, O3, O5, P2, P5, P8, P9, P11 and Q. PL prepared as aqueous suspensions were added the culture flasks in order to achieve PL concentrations in the culture medium from 10 μmol to 1 mmol. Cell cultures were incubated for 24 h and 48 h. Thereafter, the culture medium was removed and the cells washed twice. Following this, cells suspensions were given in four vials to perform the following analysis:
Volumetric measurement of cells was done in a Histopenz (Sigma) solution with an effective NaCl concentration of 0.9% (approximately 290 mOsm) heated to 37° C. in which the cells were suspended; thereafter the solution was sonified for 2 minutes. Measurements were done using a Coulter counter Z2.

[3] = tested on: Cardiac muscle cells derived from neonatal rat heart; experiment: Hypoxia of cardiac muscle cells (viability, mitochondrial NAD+); type: cell-based; set-up: loss of viability of heart muscle cells after hypoxia: concentration or dose not given beside the values; conditions: for mitochondrial NAD+ content: hypoxia, baseline 5
Experimental: Cardiac muscle cells derived from neonatal rat heart (Nitobe J, et al, Reactive oxygene species regulate FLICE inhibitory protein and susceptibility to FAS-mediated apoptosis in cardiac myocytes. Cardiovasc RES 2003, 119-28). The heart muscle cells were cultured in Dulbecco/Eagle medium (DMEM) with 10% FCS added under standard conditions for two days. Incubation with the natural and nitrated phospholipids, as well as the hypoxia experiments were carried out as described above. Incubated cells were grown in culture medium under standard conditions for 24 hours. This is followed by a vitality staining as described above. […] The frozen cells were thawed up to -4° C. and homogenized for subsequent NAD^+ analyses. By means of differential centrifuge, pellets containing mitochondria were separated (Di Lisa, et al, 1993; Am. J. Physiol. 264, […]-[…]). The NAD^+ content was determined by fluoroscopy, and normalized to the protein content (Veloso, D., and […]., 1974;) Anal. Biochem., 449-450).

[4] = tested on: Heart muscle cells from rabbit hearts; experiment: Cytosolic Ca2+ concentration in heart muscle cells (fluo-4 fluorescence); type: cell-based
Experimental: Heart muscle cells were taken from rabbit hearts according to a method described elsewhere (Shannon T R, Ginsburg K S, Bers D M. Quantitative assessment of the SRCa^2+ leak-load relationship. Circ Res. 2002; 91:594-600). The prepared cells were cultured for 72 hours.
The cytosolic Ca^2+ concentrations were determined with fluo-4 fluorescence. Therefore the cells were incubated with 10 μmol fluo-4 AM (1%) for 30 minutes and washed thereafter three times with PBS. The cells were stimulated in a Tryode solution on a platinum electrode with a frequency of 0.5 Hz over 20 cycles. Then the ambient medium was changed and an electrolyte-free colloidal solution was added. Determination of the Ca concentration was performed after each series of stimulation over 20 cycles. Calcium content was estimated by the use of confocal laser scanning microscopy (Olympus). At least 10 cells per experiment were evaluated in a post-systolic interval of 1000 ms. The measurements were repeated at least three times. β-adrenergic stimulation was performed with 250 nmol/L isoproterenol, which was given to the medium.

[5] = tested on: TRPV1, 2 and 4, TRPA1; experiment: Inducible ion current of TRP receptors in Xenopus oocytes (voltage clamp); type: cell-based, rat; conditions: 50 mmol/l, 10 and 60 minutes
Experimental: An established in-vitro model of Xenopus oocytes (Dascal N, 1987 The use of Xenopus oocytes. CRC critical reviews in biochemistry 22, 317-387) was used to study the influence of incubation with PL on ion channels regulated by membrane receptors. Defolliculized oocytes were transfected with cRNA (rat) of TRPV1, 2 and 4, as well as of TRPA1, stored in tissue culture plates and incubated in culture medium (ND 96) at 15° C. under constant motion in the incubator for 7 to 10 days.
Induced leakage currents through activation of the TRP receptors was determined by means of double electrode voltage-clamp technique (Ahern G P, Brooks I M, Miyares R L &Wang X B, 2005, Extracellular cations sensitize and gate capsaicin receptor TRPV1 modulating pain signalling. J Neurosci 25, 5109-5116). Ooocytes were probed with borosilicate glass capillaries (Clark) and connected to a feedback amplifier (Gene clamp Amplifier, Axon instruments). The membrane potential of oocytes was clamped to −60 or −90 mV. The presence of a directive […] current was compared to non-transfected controls. The investigations were performed in a miniature organ bath in calcium-free buffered (Hepes, pH 7.3) NaCl solution. The TRPV1 receptor excitation was initiated by rapidly changing of the bath solution against a capsaicin solution (10 μmol). Results of non-pretreated oocytes were used for normative comparison of subsequent measurements of incubatesd cells. Investigations with incubated cells were carried out in the same way for oocytes transfected with the TRPV2, and TRPV4 and TRPA1 receptors, wherein the receptor agonists cannabidiol (10 μmol) and 4α-PDD (4α-phorbol 12,13-didecanoate, 50 μmol) and innamaldehyde (50 μmol) were used instead of capsaicin.

[6] = Tissue response to coated silicone implants in vivo after bleomycin; set-up: species or system Wistar rats; conditions: silicone cushions, subcutaneous, 7 to 90 days
Experimental: Induction of fibrotic tissue production by connective tissue activation as a consequence of implantation of foreign material was examined in an in-vivo animal model. As implant materials, sterile silicone cushions having a diameter of 1 cm were used.
In male Wistar rats (190-240 g) that were fed and housed under identical conditions for one week, general anaesthesia was performed by intramuscular injection of 0.008 mL/100 g ketamine and 0.004 mL/100 g xylocaln chloride 2%. Then the back of the animals was shaved, sterilized and infiltrated with xylocalne chloride. A paravertebral incision was made on both sides with a length of 1.5 cm followed by preparation of the subcutaneous tissue, so that on both sides approx. 2×2 cm cavities were preformed. Hemostasis was achieved by cauterization, if necessary. Then balls of cotton saturated with Bleomycin (cell-pharm GmbH, Hannover, Germany: 1% in 0.9% NaCl solution) were inserted into the cavities for 3 minutes and then removed. Without rinsing the cavities, the implants coated with a nitrated phospholipid were inserted into the cavity on the left side and the implants coated with natural phospholipid into the cavity on the right side. Thereafter, a layer by layer wound closure was performed and a sterile adhesive bandage was applied.
The animals were kept according to standard conditions for 7, 14, 30, 60 and 90 days. At any study time endpoint, two animals were euthanized. After death the well visible and palpable implants were removed using en-block resection technique. The resected specimens were fixed and embedded in paraffin. Then they were cut in half and the liquid silicone was removed. The specimens were embedded again and cut into thin slices which were stained with H & E and Sirius red, and evaluated by light microscopy. Evaluation was done according to the following criteria:
A1: none; A2: occasional monocytic cells or lymphocytes; A3: moderate numbers or groups of monocytic cells or lymphocytes; A4: dense infiltration of monocytes, eosinophils, or giant cells.
B1: none; B2: collagen-rich layer around the implant; B3: thick (>1 mm) and dense collagen-rich tissue formation around the implant.
In every 10th serial section 10 fields of view uniformly distributed over the circumference of the implant were evaluated and the herein predominant expression was assigned to an event table. In total, 200 fields of view were analyzed per implant

[7] = tested on: ovarian tissue strips; experiment: Cryopreservation of ovarian tissue strips: 17 β-estradiol and progesterone (radio-immuno assay); type: cell-based, sheep; conditions: after cryopreservation and culture
Experimental: Ovar ectomy was performed in female sheep; resected tissues were cut into 60 ovarian tissue strips. The ovarian strips were either cultured directly (n=4) or prepared with a usual solution for vitrification (VS group; Vitrification Kit, Sage, USA) or incubated with nitrated PLs (NPL group). For this purpose, the tissue strips were bathed in an equibrilation solution (ART-8025-A) which consisted of MOPS-buffered amino acids and gentamicin sulfate (10 mg/l), and 7.5% (v/v) of each DMSO and ethylene glycol and 12 mg/ml human serum albumin for 30 minutes. Thereafter the strips of the VS group were placed in the vitrification solution (ART-8025-B), which is a MOPS-buffered solution containing amino acids and gentamicin sulfate, that contain 15% (v/v) each DMSO and ethylenglycol, 12 mg/ml human albumin and 0.6 M sucrose. The strips of the NPL group were placed in a solution containing 25% (v/v) nitrated PL SNOPC or PNLPC in a PBS-buffered 1% DMSO solution containing 5% human albumin for 60 minutes. The treated tissue strips were then immersed into liquid nitrogen and kept here for 14 days. Then removal and warming of the tissue pieces was performed in AIM-V medium (Gibco, Invitrogen) in a sterile culture dish, first up to 5° C. within 20 minutes, then heated further in a water bath up to 37° C., within the following 60 minutes. The culture medium was replaced and specimens cultured for 14 days. After this, the tissue pieces were fixed, embedded in paraffin and cut, followed by histological examination. […] The total number of intact follicles in the control group was taken as a reference to the number of follicles in the cryopreserved groups.
The culture medium has been exchanged by every 2nd day; samples for hormone analysis were taken and frozen at that time. Determination of 17 β-estradiol and progesterone were performed with a radio-immuno assay (diagnostic systems laboratories, USA).

[8] = tested on: ovarian tissue strips; experiment: Cryopreservation of ovarian tissue strips: intact follicles; conditions: liquid nitrogen 14 days, cultured 14 days
[9] = tested on: cortical neurons; experiment: Hypoxia and reperfusion of cortical neurons (viability, LDH)
[10] = tested on: HeLa, HUVEC and L929 fibroblast; experiment: Cell viability with the live/dead assay; type: cell-based
Experimental: as §1, §2
Studies of cell viability were carried out with the live/dead assay (Molecular Probes). For this purpose, the cells were washed twice with PBS solution and then seeded into a culture medium. Incubation with the staining solution (in 0.1% DMSO) was carried out over 30 minutes in the dark. The viability analyses were performed using fluorescence microscopy.

[11] = tested on: sciatic nerve; experiment: Viability of cryopreserved nerve grafts (Annexin-V staining, FACS); type: cell-based, rats; conditions: 100 mmolar solution 1 hour; −30° C. 72 hours
[12] = Abrasion stability and traction work load of coated balloon catheters; type: physicochemical
Experimental: Balloon catheters were coated by means of the Langmuir-Schaefer procedure where the balloon segment was aligned longitudinally and coaxial to the solution surface, dipping into the liquid for approx. 1 mm over the entire length. Then the catheter was slowly rotated around its axis 5 times. Phospholipids were dissolved at a concentration of 3 mmol in an ion-free aqueous solution at 50° C. The solution was cooled and given to the coating solution then. In case of incomplete dissolution of the phospholipids or if they separated when cooled, DMSO was added at a concentration of up to 20 vol.-%, preferably up to 10 vol.-%. After coating, the catheters were vacuum dried for 8 hours in order to remove residual solvent.
The tubing was filled with a 10% human albumin solution at a temperature of 35° C. The cable system, which had previously been brought through the tubing was connected to the catheter tip and tracked outside the tubing by reversing pulleys, which allowed exactly vertically traction of the cable that was connected to a motorized winch. The winch was mounted on a digital precision balance. The catheters mounted in this manner were pulled through the tubing system and the weight changes measured by the balance, which represented the traction work load achieved for the passage of the catheter, was recorded continuously. These readings were integrated over time. The resultant values allow estimation of the total shear force that occurred during the passage of the catheter through the tubing system.
The abrasion or loss of coating layers was determined by weighing the catheter before and after coating as well as after the mechanical stability test in the tubing system as described above using a high precision balance.

[13] = for the different cell lines, read-out: EC50 concentration (MTT assay)

CCCCC/C=C\C/C=C(\CCCCCCCC(=O)O)[N+](=O)[O-] [nitro-linoleic acid, E-9-nitrolinoleic acid]
EC50 [1, 13]: 50 to 100 µM | cell volume (increase in size to) [2]: 120%

CCCCC/C=C\CC=C(CCCCCCCC(=O)O[C@H](COC(=O)CCCCCCCCCCCCCCC)COP(=O)([O-])OCC[N+](C)(C)C)[N+](=O)[O-] [Example P7, 1-palmitoyl-2-(9-nitrolinoleoyl)-sn-3-glycerophosphocholine]
total viability (MTT assay) [1]: 75% | EC50 ([1]; range over cell lines, read-out: EC50 (MTT assay)): 400 to 3900 µM | loss of viability of heart muscle cells after hypoxia ([3]; (10 minutes)): 5% | loss of viability of heart muscle cells after hypoxia ([3]; (30 minutes)): 18% | mitochondrial NAD+ content ([3]; first printed value): 3.6 nmol/mg protein | mitochondrial NAD+ content ([3]; second printed value): 3.1 nmol/mg protein | end of diastole (ED) cytosolic calcium ([4]; after hypoxia): 70 nmol/L | post systolic (PS) cytosolic calcium ([4]; after hypoxia): 30 nmol | end of diastole (ED) cytosolic calcium ([4]; after hypoxia and stimulation with isoproterenol): 100 nmol/L | end of diastole (ED) cytosolic calcium ([4]; normoxic conditions): 30 nmol/L | post systolic (PS) cytosolic calcium ([4]; normoxic conditions): 10 nmol | inducible membrane channel activity of TRP channels [5]: significant decrease of inducible membrane channel activity | biocompatibility of coated implants compared to natural PLs [6]: improved biocompatibility of implants several-fold | estradiol [7]: 8.3 ng/mL | progesterone [7]: 0.4 ng/mL | rate of intact follicles relative to the control group [8]: 98% | increase in LDH versus normoxemia culture ([9]; 10-minutes ischemia): 130 fold | viability of cortical cells measured after 24 hours ([9]; 10-minutes ischemia): 70% | increase in LDH versus normoxemia culture ([9]; 30-minutes ischemia): 290 fold | viability of cortical cells measured after 24 hours ([9]; 30-minutes ischemia): 52%

CCCCCCCC/C=C(\CCCCCCCC(=O)O)[N+](=O)[O-] [nitro oleic acid, E-9-nitrooleic acid]
EC50 [1, 13]: 10 to 50 µM | cell volume (increase in size to) [2]: 140%

CCCCCCCC/C=C\CCCCCCCC(=O)O[C@H](COC(=O)CCCCCCCCCCCCCCCCC)COP(=O)([O-])OCC[N+](C)(C)C [SOPC, 1-Stearoyl-2-oleoyl-sn-glycero-3-PC, reference compound]
viability as quantified by the MTT assay [1]: only slightly decreased | cell volume (increase in size to) [2]: 150% | viability according to the live/dead staining [10]: high rate of viability | loss of viability of heart muscle cells after hypoxia ([3]; (10 minutes)): 14% | loss of viability of heart muscle cells after hypoxia ([3]; (30 minutes)): 40% | mitochondrial NAD+ content ([3]; first printed value): 3.0 nmol/mg protein | mitochondrial NAD+ content ([3]; second printed value): 1.1 nmol/mg protein | proportion of living cells relative to non-frozen control [11]: 26% | increase in LDH versus normoxemia culture ([9]; 10-minutes ischemia): 280 fold | viability of cortical cells measured after 24 hours ([9]; 10-minutes ischemia): 33% | increase in LDH versus normoxemia culture ([9]; 30-minutes ischemia): 640 fold | viability of cortical cells measured after 24 hours ([9]; 30-minutes ischemia): 0%

CCCCCCCC/C=C\CCCCCCCC(=O)OC[C@H](COP(=O)([O-])OCC[N+](C)(C)C)OC(=O)CCCCCCC/C=C\CCCCCCCC [DOPC, 1,2-dioleoyl-sn-glycero-3-PC]
viability as quantified by the MTT assay [1]: only slightly decreased | cell volume (increase in size to) [2]: 180% | viability according to the live/dead staining [10]: high rate of viability

CCCCCCCC/C=C(\CCCCCCCC(=O)OC[C@H](COP(=O)(O)OCCN)OC(=O)CCCCCCC/C(=C\CCCCCCCC)[N+](=O)[O-])[N+](=O)[O-] [Example D, 1,2-di-(9-nitrooleoyl)-sn-3-glycero-phosphatidylethanolamine]
mechanical removal of coating substance and workload to pull the catheter through PTFE tubing [12]: Very similar results | inducible membrane channel activity of TRP channels [5]: significant decrease of inducible membrane channel activity | biocompatibility of coated implants compared to natural PLs [6]: improved biocompatibility of implants several-fold | proportion of living cells relative to non-frozen control [11]: 89%

CCCCC/C=C\C/C=C\CCCCCCCC(=O)O [linoleic acid, Linoleic acid]
EC50 [1, 13]: 240 to 260 µM | cell volume (increase in size to) [2]: 170%

CCCCCCCC/C=C\CCCCCCCC(=O)O [oleic acid, Oleic acid]
EC50 [1, 13]: 180 to 260 µM | cell volume (increase in size to) [2]: 200%

CCCCCCCC/C=C(\CCCCCCCC(=O)OC[C@H](COP(=O)([O-])OCC[N+](C)(C)C)OC(=O)CCCCCCC/C(=C\CCCCCCCC)[N+](=O)[O-])[N+](=O)[O-] [Example B, 1,2-di-(9-nitrooleoyl)-sn-3-glycerophosphocholine]
mechanical removal of coating substance and workload to pull the catheter through PTFE tubing [12]: Very similar results | inducible membrane channel activity of TRP channels [5]: significant decrease of inducible membrane channel activity | biocompatibility of coated implants compared to natural PLs [6]: improved biocompatibility of implants several-fold | proportion of living cells relative to non-frozen control [11]: 83%
